Source: US20150051558A1, “COMPOSITION AND METHOD FOR CORNEAL PROLIFERATION” (UNIVERSITY OF CENTRAL FLORIDA RESEARCH FOUNDATION, INC., priority 2012, published 2015)
“Also recorded” adds a separate entry of the source.

How the values were obtained:
rat cornea [1] = assay: Experiment 1: BrdU staining of cornea after MS-818 ophthalmic drops; assay type: in vivo
Experimental: (§1) Surgeries were performed to remove the left lachrymal gland from sixteen rats. MS-818 was then administered via ophthalmic drop to both eyes of twelve of the rats divided into three dosage groups, 1 mg/ml, 3 mg/ml, and 10 mg/ml. The remaining four rats served as a control group, receiving drops of phosphate buffered saline. The compound was administered three times over a period of three days. BrdU was administered during this time via intra-peritoneal injection. Rats were euthanized seven days after the first compound administration and underwent perfusion. Eyes were sliced in twenty micron slices using a cryostat. The slices were mounted on glass slides. The slides were then stained with monoclonal mouse anti BrdU primary antibody to test for the incorporation of BrdU into nuclei. TRITC conjugated donkey anti mouse secondary antibody was used to detect the primary antibody. Slides were stained with DAPI to visualize the nuclei. Images were captured of the slices in 100× magnification under TRITC, DAPI and FITC fluorescence.

rat cornea [2] = assay: Experiment 2: BrdU staining of cornea after MS-818 ophthalmic drops; assay type: in vivo
Experimental: as §1, with “According to another example similar to experiment 1, surgeries” for “Surgeries”, “groups, 100 μg/ml, 300 μg/ml, and” for “groups,”, “1” for “1 mg/ml, 3 mg/ml, and 10”

## CN1Cc2nc(N3CCCCC3)ncc2C1=O.O=C(O)/C=C\C(=O)O [MS-818, 2-piperadino-6-methyl-5-oxo-5,6-dihydro-(7H) pyrrole-[3,4-d]pyrimidine maleate]
Rat cornea [1]; ophthalmic drops, three dosage groups, preliminary results
  proliferation in the non-injured eyes vs non-drug receiving control group: marked increase in proliferation
Rat cornea [1]; rat, eye drop, high dosage (1 mg/ml), three times over three days, euthanized seven days after first administration, non surgical eye, FIG. 1B vs control FIG. 1A
  BrdU positive signaling within the cornea (cell proliferation): significantly increased BrdU positive signaling
Rat cornea [2]; eye drop 100 μg/ml, 300 μg/ml, 1 mg/ml, three times over three days, non surgical eye, FIG. 4
  cell proliferation (BrdU staining) in cornea vs control animal: significant increase in cell proliferation over the control animal
Rat cornea [2]; eye drop, low, medium and high dose vs control, n=6, FIG. 5
  number of nuclei positive for BrdU per field of view in the cornea: significantly (p<0.05) higher than the control; also recorded: significant and dose dependent increase
